Data on eight compounds can be found in patent US11572399B2, “Long-acting GIP peptide analogues” (University of Copenhagen, priority 2017, dated 2023).

SMILES strings stand for the structures. Read-outs that look alike come from different tables or passages of the source. Numbered stars: 1 amine (or outer) side, 2 acyl side, 3 side chain; on linkers, the order of the positions; unused ones are H or OH. Side chains are listed from the residue outwards. Peptide text beside a SMILES is read from it. * marks the point of attachment. γGlu = O=C(O)[C@H](CCC(=O)[*:2])N[*:1]; Palmitoyl = CCCCCCCCCCCCCCCC(=O)*; AEEA = NCCOCCOCC(=O)O; GABA = NCCCC(=O)O

Data set [1] has as its target T1, human GIP receptor (Homo sapiens, UniProt P48546).
T1 construct: host or cells: COS-7, transient transfection (calcium phosphate), cDNA in pCMV-Script
T1 sequence (P48546 22-466): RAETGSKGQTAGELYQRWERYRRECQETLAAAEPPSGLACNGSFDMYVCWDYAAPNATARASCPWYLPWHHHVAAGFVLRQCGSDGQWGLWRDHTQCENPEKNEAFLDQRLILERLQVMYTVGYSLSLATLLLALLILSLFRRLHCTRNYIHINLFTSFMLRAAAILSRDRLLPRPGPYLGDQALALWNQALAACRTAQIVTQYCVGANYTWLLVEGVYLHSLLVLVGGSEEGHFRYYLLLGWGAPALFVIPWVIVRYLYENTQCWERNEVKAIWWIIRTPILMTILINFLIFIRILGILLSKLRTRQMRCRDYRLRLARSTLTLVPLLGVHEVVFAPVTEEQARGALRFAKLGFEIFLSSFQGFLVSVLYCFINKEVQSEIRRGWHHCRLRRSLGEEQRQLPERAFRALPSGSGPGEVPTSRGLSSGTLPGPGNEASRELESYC
The experiment in a line: cAMP accumulation assay, agonism (ligand alone). It counts as cell-based. Particulars: COS-7 cells, Table 1; for Emax: COS-7, intrinsic cAMP activity. On the technique in general: Cyclic AMP is a second messenger, typically raised through Gs and lowered through Gi signalling.

Data set [2] has as its target T1, human GIP receptor. Kind of data set: 125I-human GIP competition binding assay, in the presence and absence of 2% HSA.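 Note: nonspecific binding taken as radioligand bound to untransfected cells, IC50 obtained from nonlinear regression fits.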
Data set [3] concerns the target T1, human GIP receptor. Kind of data set: cAMP accumulation assay, antagonism of a GIP-mediated cAMP response (50-80% of max). Particulars: Table 5. It counts as cell-based. As for the experimental part:
The day after, the cells were washed twice with Hepes buffered saline (HBS) buffer and incubated with HBS and 1 mM 3-isobutyl-1-methylxanthine (IBMX) for 30 min at 37° C. […] The HitHunter™ cAMP XS assay (DiscoveRx) was carried out according to the manufacturer's instructions.

Setting [4] is: heterologous competition binding, transiently transfected COS-7 cells expressing the human GIP receptor, read-out: Binding.

With `CC[C@H](C)[C@H](NC(=O)[C@H](CO)NC(=O)[C@H](Cc1ccc(O)cc1)NC(=O)[C@H](CC(=O)O)NC(=O)[C@H](CO)NC(=O)[C@@H](NC(=O)[C@H](Cc1ccccc1)NC(=O)[C@@H](N)[C@@H](C)O)[C@@H](C)CC)C(=O)N[C@@H](C)C(=O)N[C@@H](CCSC)C(=O)N[C@@H](CC(=O)O)C(=O)N[C@@H](CCCCNC(=O)CCCCCCCCCCCCCCCCC(=O)O)C(=O)N[C@H](C(=O)N[C@@H](Cc1c[nH]cn1)C(=O)N[C@@H](CCC(N)=O)C(=O)N[C@@H](CCC(N)=O)C(=O)N[C@@H](CC(=O)O)C(=O)N[C@@H](Cc1ccccc1)C(=O)N[C@H](C(=O)N[C@@H](CC(N)=O)C(=O)N[C@@H](Cc1c[nH]c2ccccc12)C(=O)N[C@@H](CC(C)C)C(=O)N[C@@H](CC(C)C)C(=O)N[C@@H](C)C(=O)N[C@@H](CCC(N)=O)C(=O)N[C@@H](CCCCN)C(N)=O)C(C)C)[C@@H](C)CC` [AT141, [hGIP(5-30)NH2—C18diacid/16]], the Emax (commonly the greatest response seen or fitted, relative to the assay's reference) on human GIP receptor [1] stood at 0%. The “Fold change HSA (2%)/Casein (0.1%)” value on human GIP receptor [2] (IC50 (plus HSA)/IC50 (minus HSA)) is on record as 6.5. The IC50 was 2000 nM at human GIP receptor [2] (binding in 0.1% casein (absence of HSA), log value, read-out: logIC50 0.1% casein (converted)) and 1900 nM at human GIP receptor [2] (setting [4]).

For the compound `CCCCCCCCCCCC(=O)N[C@@H](CCC(=O)O)C(=O)NCC(=O)N[C@H](C(=O)N[C@@H](Cc1ccccc1)C(=O)N[C@H](C(=O)N[C@@H](CO)C(=O)N[C@@H](CC(=O)O)C(=O)N[C@@H](Cc1ccc(O)cc1)C(=O)N[C@@H](CO)C(=O)N[C@H](C(=O)N[C@@H](C)C(=O)N[C@@H](CCSC)C(=O)N[C@@H](CC(=O)O)C(=O)N[C@@H](CCCCN)C(=O)N[C@H](C(=O)N[C@@H](Cc1c[nH]cn1)C(=O)N[C@@H](CCC(N)=O)C(=O)N[C@@H](CCC(N)=O)C(=O)N[C@@H](CC(=O)O)C(=O)N[C@@H](Cc1ccccc1)C(=O)N[C@H](C(=O)N[C@@H](CC(N)=O)C(=O)N[C@@H](Cc1c[nH]c2ccccc12)C(=O)N[C@@H](CC(C)C)C(=O)N[C@@H](CC(C)C)C(=O)N[C@@H](C)C(=O)N[C@@H](CCC(N)=O)C(=O)N[C@@H](CCCCN)C(N)=O)C(C)C)[C@@H](C)CC)[C@@H](C)CC)[C@@H](C)CC)[C@@H](C)O` [AT148, [hGIP(3-30)NH2—C12/3]], on human GIP receptor [1], the Emax turned out to be 43%. Further, the EC50 (commonly the midpoint of the concentration-response curve) at human GIP receptor [1] (read-out: cAMP agonism nM (EC50)) is 13 nM. Further, on human GIP receptor [2] (setting [4]), the IC50 is 24 nM.

`CCCCCCCCCCCC(=O)NCCCC[C@H](NC(=O)[C@H](CC(=O)O)NC(=O)[C@H](CCSC)NC(=O)[C@H](C)NC(=O)[C@@H](NC(=O)[C@H](CO)NC(=O)[C@H](Cc1ccc(O)cc1)NC(=O)[C@H](CC(=O)O)NC(=O)[C@H](CO)NC(=O)[C@@H](NC(=O)[C@H](Cc1ccccc1)NC(=O)[C@@H](NC(=O)CNC(=O)[C@@H](N)CCC(=O)O)[C@@H](C)O)[C@@H](C)CC)[C@@H](C)CC)C(=O)N[C@H](C(=O)N[C@@H](CCCNC(=N)N)C(=O)N[C@@H](CCC(N)=O)C(=O)N[C@@H](CCC(N)=O)C(=O)N[C@@H](CC(=O)O)C(=O)N[C@@H](Cc1ccccc1)C(=O)N[C@H](C(=O)N[C@@H](CC(N)=O)C(=O)N[C@@H](Cc1c[nH]c2ccccc12)C(=O)N[C@@H](CC(C)C)C(=O)N[C@@H](CC(C)C)C(=O)N[C@@H](C)C(=O)N[C@@H](CCC(N)=O)C(=O)N[C@@H](CCCNC(=N)N)C(N)=O)C(C)C)[C@@H](C)CC` [AT153, [hGIP(3-30)NH2[H18R; K30R]-C12/16]]: on human GIP receptor [1], the Emax came to 0%. For the same compound, the IC50 on human GIP receptor [2] (setting [4]) was 316 nM.

For the compound `CCCCCCCCCCCC(=O)NCCCC[C@H](NC(=O)[C@H](CC(=O)O)NC(=O)[C@H](CCSC)NC(=O)[C@H](C)NC(=O)[C@@H](NC(=O)[C@H](CO)NC(=O)[C@H](Cc1ccc(O)cc1)NC(=O)[C@H](CC(=O)O)NC(=O)[C@H](CO)NC(=O)[C@@H](NC(=O)[C@H](Cc1ccccc1)NC(=O)[C@@H](NC(=O)CNC(=O)[C@@H](N)CCC(=O)O)[C@@H](C)O)[C@@H](C)CC)[C@@H](C)CC)C(=O)N[C@H](C(=O)N[C@@H](Cc1c[nH]cn1)C(=O)N[C@@H](CCC(N)=O)C(=O)N[C@@H](CCC(N)=O)C(=O)N[C@@H](CC(=O)O)C(=O)N[C@@H](Cc1ccccc1)C(=O)N[C@H](C(=O)N[C@@H](CC(N)=O)C(=O)N[C@@H](Cc1c[nH]c2ccccc12)C(=O)N[C@@H](CC(C)C)C(=O)N[C@@H](CC(C)C)C(=O)N[C@@H](C)C(=O)N[C@@H](CCC(N)=O)C(=O)N[C@@H](CCCCN)C(N)=O)C(C)C)[C@@H](C)CC` [AT154, [hGIP(3-30)NH2—C12/16]], the “cAMP agonism Emax” value at human GIP receptor [1] (intrinsic cAMP activity) came to 0%. Also, the IC50 on human GIP receptor [2] (setting [4]) stood at 27 nM.

At human GIP receptor [1], `CCCCCCCCCCCCCCCCCC(=O)NCCCC[C@H](NC(=O)[C@H](CC(=O)O)NC(=O)[C@H](CCSC)NC(=O)[C@H](C)NC(=O)[C@@H](NC(=O)[C@H](CO)NC(=O)[C@H](Cc1ccc(O)cc1)NC(=O)[C@H](CC(=O)O)NC(=O)[C@H](CO)NC(=O)[C@@H](NC(=O)[C@H](Cc1ccccc1)NC(=O)[C@@H](NC(=O)CNC(=O)[C@@H](N)CCC(=O)O)[C@@H](C)O)[C@@H](C)CC)[C@@H](C)CC)C(=O)N[C@H](C(=O)N[C@@H](CCCNC(=N)N)C(=O)N[C@@H](CCC(N)=O)C(=O)N[C@@H](CCC(N)=O)C(=O)N[C@@H](CC(=O)O)C(=O)N[C@@H](Cc1ccccc1)C(=O)N[C@H](C(=O)N[C@@H](CC(N)=O)C(=O)N[C@@H](Cc1c[nH]c2ccccc12)C(=O)N[C@@H](CC(C)C)C(=O)N[C@@H](CC(C)C)C(=O)N[C@@H](C)C(=O)N[C@@H](CCC(N)=O)C(=O)N[C@@H](CCCNC(=N)N)C(N)=O)C(C)C)[C@@H](C)CC` [AT162, [hGIP(3-30)NH2[H18R; K30R]-C18/16]] had an Emax of 44%. Besides, on human GIP receptor [2] (presence vs absence of 2% HSA, proxy for albumin binding), the “Fold change in affinity, IC50 (plus HSA)/IC50 (minus HSA)” value was 5.6 fold.

As for `CCCCCCCCCCCCCCCC(=O)NCCCC[C@H](NC(=O)[C@H](CC(=O)O)NC(=O)[C@H](CCSC)NC(=O)[C@H](C)NC(=O)[C@@H](NC(=O)[C@H](CO)NC(=O)[C@H](Cc1ccc(O)cc1)NC(=O)[C@H](CC(=O)O)NC(=O)[C@H](CO)NC(=O)[C@@H](NC(=O)[C@H](Cc1ccccc1)NC(=O)[C@@H](NC(=O)CNC(=O)[C@@H](N)CCC(=O)O)[C@@H](C)O)[C@@H](C)CC)[C@@H](C)CC)C(=O)N[C@H](C(=O)N[C@@H](CCCCN)C(=O)N[C@@H](CCC(N)=O)C(=O)N[C@@H](CCC(N)=O)C(=O)N[C@@H](CC(=O)O)C(=O)N[C@@H](Cc1ccccc1)C(=O)N[C@H](C(=O)N[C@@H](CC(N)=O)C(=O)N[C@@H](Cc1c[nH]c2ccccc12)C(=O)N[C@@H](CC(C)C)C(=O)N[C@@H](CC(C)C)C(=O)N[C@@H](C)C(=O)N[C@@H](CCC(N)=O)C(=O)N[C@@H](CCCCN)C(N)=O)C(C)C)[C@@H](C)CC` [AT163, [hGIP(3-30)NH2[H18K]-C16/16]] (H-EGTFISDYSIAMDK(Palmitoyl)IKQQDFVNWLLAQK-NH2; N-terminus assumed), on human GIP receptor [1], the Emax was found to be 0%. The IC50 on human GIP receptor [2] (setting [4]) turned out to be 205 nM.

Take `CCCCCCCCCCCCCCCC(=O)NCCCC(=O)NCCCC[C@H](NC(=O)[C@@H](NC(=O)[C@H](CCCCN)NC(=O)[C@H](CC(=O)O)NC(=O)[C@H](CCSC)NC(=O)[C@H](C)NC(=O)[C@@H](NC(=O)[C@H](CO)NC(=O)[C@H](Cc1ccc(O)cc1)NC(=O)[C@H](CC(=O)O)NC(=O)[C@H](CO)NC(=O)[C@@H](NC(=O)[C@H](Cc1ccccc1)NC(=O)[C@@H](NC(=O)CNC(=O)[C@@H](N)CCC(=O)O)[C@@H](C)O)[C@@H](C)CC)[C@@H](C)CC)[C@@H](C)CC)C(=O)N[C@@H](CCC(N)=O)C(=O)N[C@@H](CCC(N)=O)C(=O)N[C@@H](CC(=O)O)C(=O)N[C@@H](Cc1ccccc1)C(=O)N[C@H](C(=O)N[C@@H](CC(N)=O)C(=O)N[C@@H](Cc1c[nH]c2ccccc12)C(=O)N[C@@H](CC(C)C)C(=O)N[C@@H](CC(C)C)C(=O)N[C@@H](C)C(=O)N[C@@H](CCC(N)=O)C(=O)N[C@@H](CCCCN)C(N)=O)C(C)C` [AT165, [hGIP(3-30)NH2[H18K]-C16/18+y-aminobuturic acid]] (H-EGTFISDYSIAMDKIK([GABA-Palmitoyl])QQDFVNWLLAQK-NH2; N-terminus assumed): on human GIP receptor [3], the “Fold change from GIP(3-30)NH2 (increase in potency)” value was found to be 2.9 fold.

Consider `CCCCCCCCCCCCCCCC(=O)NCCOCCOCC(=O)N[C@@H](CCC(=O)NCCCC[C@H](NC(=O)[C@@H](NC(=O)[C@H](CCCCN)NC(=O)[C@H](CC(=O)O)NC(=O)[C@H](CCSC)NC(=O)[C@H](C)NC(=O)[C@@H](NC(=O)[C@H](CO)NC(=O)[C@H](Cc1ccc(O)cc1)NC(=O)[C@H](CC(=O)O)NC(=O)[C@H](CO)NC(=O)[C@@H](NC(=O)[C@H](Cc1ccccc1)NC(=O)[C@@H](NC(=O)CNC(=O)[C@@H](N)CCC(=O)O)[C@@H](C)O)[C@@H](C)CC)[C@@H](C)CC)[C@@H](C)CC)C(=O)N[C@@H](CCC(N)=O)C(=O)N[C@@H](CCC(N)=O)C(=O)N[C@@H](CC(=O)O)C(=O)N[C@@H](Cc1ccccc1)C(=O)N[C@H](C(=O)N[C@@H](CC(N)=O)C(=O)N[C@@H](Cc1c[nH]c2ccccc12)C(=O)N[C@@H](CC(C)C)C(=O)N[C@@H](CC(C)C)C(=O)N[C@@H](C)C(=O)N[C@@H](CCC(N)=O)C(=O)N[C@@H](CCCCN)C(N)=O)C(C)C)C(=O)O` [AT167, [hGIP(3-30)NH2[H18K]-C16/18+y-glutamic acid+8-amino-3,6-dioxaoctanoic acid]] (H-EGTFISDYSIAMDKIK([γGlu-AEEA-Palmitoyl])QQDFVNWLLAQK-NH2), for which the “Fold change from GIP(3-30)NH2 (increase in potency)” value at human GIP receptor [3] stood at 14.8 fold.
